Assay results from PubChem BioAssay (NCI).
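Where inhibition never reached the appropriate level, the endpoint shown equals the highest concentration tested. Otherwise, values were interpolated linearly from a five-concentration, 48-hour dose response in 96-well plates. TGI: concentration producing complete growth inhibition.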 *1 amine or outer side, *2 acyl side, *3 side chain or, on linkers, in order; H or OH if unused. Where a SMILES comes first, the peptide text is derived from it. [ ]: non-standard residue; d: D form. The star is where a group is joined. ξ: configuration not given here. X53 = CC(C)C[C@H](N[*:1])C1=N[C@H](C(=O)[*:2])CS1; Ile(3ξ) = CCC(C)[C@H](N)C(=O)O; Allyl(1,1-Me2) = C=CC(C)(C)*

test system: LOX IMVI melanoma; experiment: NCI tumour cell line growth inhibition, 48 h

Row | Compound | TGI [µM]
1 | O=C1c2ccccc2C(=O)N1[C@@H](Cc1ccccc1)C(=O)n1cccc1CO | > 100
2 | Clc1ccc(Cc2nc3cc(Cl)c(Cl)cc3n2CC2CCCN3CCCCC23)cc1Cl (configuration not stated) | 6
3 | C=CC(C)(C)OC[C@@H]1NC(=O)CNC(=O)[C@@H]2CCCN2C(=O)[C@H](C(C)CC)NC(=O)[C@@H]2CSC(=N2)[C@H](CC(C)C)NC1=O (some centres not stated) (cyclo(GS(Allyl(1,1-Me2))[X53][Ile(3ξ)]P)) | > 100

test system: MDA-MB-231 breast; experiment: NCI tumour cell line growth inhibition, 48 h

Row | Compound | TGI [µM]
4 | O=C1c2ccccc2C(=O)N1[C@@H](Cc1ccccc1)C(=O)n1cccc1CO | > 100
5 | C1CSC2=C(S1)SC1=C(S2)SC(=C2SC3=C(SC4=C(SCCS4)S3)S2)S1 | > 100
6 | Clc1ccc(Cc2nc3cc(Cl)c(Cl)cc3n2CC2CCCN3CCCCC23)cc1Cl (configuration not stated) | 7.84
7 | C=CC(C)(C)OC[C@@H]1NC(=O)CNC(=O)[C@@H]2CCCN2C(=O)[C@H](C(C)CC)NC(=O)[C@@H]2CSC(=N2)[C@H](CC(C)C)NC1=O (some centres not stated) (cyclo(GS(Allyl(1,1-Me2))[X53][Ile(3ξ)]P)) | > 100

test system: T-47D breast; experiment: NCI tumour cell line growth inhibition, 48 h

Row | Compound | TGI [µM]
8 | O=C1c2ccccc2C(=O)N1[C@@H](Cc1ccccc1)C(=O)n1cccc1CO | > 100
9 | C1CSC2=C(S1)SC1=C(S2)SC(=C2SC3=C(SC4=C(SCCS4)S3)S2)S1 | > 100
10 | Clc1ccc(Cc2nc3cc(Cl)c(Cl)cc3n2CC2CCCN3CCCCC23)cc1Cl (configuration not stated) | 33.4
11 | C=CC(C)(C)OC[C@@H]1NC(=O)CNC(=O)[C@@H]2CCCN2C(=O)[C@H](C(C)CC)NC(=O)[C@@H]2CSC(=N2)[C@H](CC(C)C)NC1=O (some centres not stated) (cyclo(GS(Allyl(1,1-Me2))[X53][Ile(3ξ)]P)) | > 100

test system: SNB-19 CNS; experiment: NCI tumour cell line growth inhibition, 48 h

Row | Compound | TGI [µM]
12 | O=C1c2ccccc2C(=O)N1[C@@H](Cc1ccccc1)C(=O)n1cccc1CO | > 100
13 | C1CSC2=C(S1)SC1=C(S2)SC(=C2SC3=C(SC4=C(SCCS4)S3)S2)S1 | > 100
14 | Clc1ccc(Cc2nc3cc(Cl)c(Cl)cc3n2CC2CCCN3CCCCC23)cc1Cl (configuration not stated) | 8.2
15 | C=CC(C)(C)OC[C@@H]1NC(=O)CNC(=O)[C@@H]2CCCN2C(=O)[C@H](C(C)CC)NC(=O)[C@@H]2CSC(=N2)[C@H](CC(C)C)NC1=O (some centres not stated) (cyclo(GS(Allyl(1,1-Me2))[X53][Ile(3ξ)]P)) | > 100

test system: UACC-257 melanoma; experiment: NCI tumour cell line growth inhibition, 48 h

Row | Compound | TGI [µM]
16 | O=C1c2ccccc2C(=O)N1[C@@H](Cc1ccccc1)C(=O)n1cccc1CO | > 100
17 | C1CSC2=C(S1)SC1=C(S2)SC(=C2SC3=C(SC4=C(SCCS4)S3)S2)S1 | > 100
18 | Clc1ccc(Cc2nc3cc(Cl)c(Cl)cc3n2CC2CCCN3CCCCC23)cc1Cl (configuration not stated) | 10.6
19 | C=CC(C)(C)OC[C@@H]1NC(=O)CNC(=O)[C@@H]2CCCN2C(=O)[C@H](C(C)CC)NC(=O)[C@@H]2CSC(=N2)[C@H](CC(C)C)NC1=O (some centres not stated) (cyclo(GS(Allyl(1,1-Me2))[X53][Ile(3ξ)]P)) | > 100

test system: SN12C renal; experiment: NCI tumour cell line growth inhibition, 48 h

Row | Compound | TGI [µM]
20 | O=C1c2ccccc2C(=O)N1[C@@H](Cc1ccccc1)C(=O)n1cccc1CO | > 100
21 | C1CSC2=C(S1)SC1=C(S2)SC(=C2SC3=C(SC4=C(SCCS4)S3)S2)S1 | > 100
22 | Clc1ccc(Cc2nc3cc(Cl)c(Cl)cc3n2CC2CCCN3CCCCC23)cc1Cl (configuration not stated) | 15.8
23 | C=CC(C)(C)OC[C@@H]1NC(=O)CNC(=O)[C@@H]2CCCN2C(=O)[C@H](C(C)CC)NC(=O)[C@@H]2CSC(=N2)[C@H](CC(C)C)NC1=O (some centres not stated) (cyclo(GS(Allyl(1,1-Me2))[X53][Ile(3ξ)]P)) | > 100

test system: OVCAR-8 ovarian; experiment: NCI tumour cell line growth inhibition, 48 h

Row | Compound | TGI [µM]
24 | O=C1c2ccccc2C(=O)N1[C@@H](Cc1ccccc1)C(=O)n1cccc1CO | > 100
25 | C1CSC2=C(S1)SC1=C(S2)SC(=C2SC3=C(SC4=C(SCCS4)S3)S2)S1 | > 100
26 | Clc1ccc(Cc2nc3cc(Cl)c(Cl)cc3n2CC2CCCN3CCCCC23)cc1Cl (configuration not stated) | 22.6
27 | C=CC(C)(C)OC[C@@H]1NC(=O)CNC(=O)[C@@H]2CCCN2C(=O)[C@H](C(C)CC)NC(=O)[C@@H]2CSC(=N2)[C@H](CC(C)C)NC1=O (some centres not stated) (cyclo(GS(Allyl(1,1-Me2))[X53][Ile(3ξ)]P)) | > 100

test system: MDA-N; experiment: NCI tumour cell line growth inhibition, 48 h

Row | Compound | TGI [µM]
28 | O=C1c2ccccc2C(=O)N1[C@@H](Cc1ccccc1)C(=O)n1cccc1CO | > 100
29 | C1CSC2=C(S1)SC1=C(S2)SC(=C2SC3=C(SC4=C(SCCS4)S3)S2)S1 | > 100
30 | Clc1ccc(Cc2nc3cc(Cl)c(Cl)cc3n2CC2CCCN3CCCCC23)cc1Cl (configuration not stated) | 16.5
31 | C=CC(C)(C)OC[C@@H]1NC(=O)CNC(=O)[C@@H]2CCCN2C(=O)[C@H](C(C)CC)NC(=O)[C@@H]2CSC(=N2)[C@H](CC(C)C)NC1=O (some centres not stated) (cyclo(GS(Allyl(1,1-Me2))[X53][Ile(3ξ)]P)) | > 100

test system: SF-268 CNS; experiment: NCI tumour cell line growth inhibition, 48 h

Row | Compound | TGI [µM]
32 | O=C1c2ccccc2C(=O)N1[C@@H](Cc1ccccc1)C(=O)n1cccc1CO | > 100
33 | C1CSC2=C(S1)SC1=C(S2)SC(=C2SC3=C(SC4=C(SCCS4)S3)S2)S1 | > 100
34 | Clc1ccc(Cc2nc3cc(Cl)c(Cl)cc3n2CC2CCCN3CCCCC23)cc1Cl (configuration not stated) | 15.8
35 | C=CC(C)(C)OC[C@@H]1NC(=O)CNC(=O)[C@@H]2CCCN2C(=O)[C@H](C(C)CC)NC(=O)[C@@H]2CSC(=N2)[C@H](CC(C)C)NC1=O (some centres not stated) (cyclo(GS(Allyl(1,1-Me2))[X53][Ile(3ξ)]P)) | > 100

test system: SK-MEL-5 melanoma; experiment: NCI tumour cell line growth inhibition, 48 h

Row | Compound | TGI [µM]
36 | O=C1c2ccccc2C(=O)N1[C@@H](Cc1ccccc1)C(=O)n1cccc1CO | > 100
37 | C1CSC2=C(S1)SC1=C(S2)SC(=C2SC3=C(SC4=C(SCCS4)S3)S2)S1 | > 100
38 | Clc1ccc(Cc2nc3cc(Cl)c(Cl)cc3n2CC2CCCN3CCCCC23)cc1Cl (configuration not stated) | 4.38
39 | C=CC(C)(C)OC[C@@H]1NC(=O)CNC(=O)[C@@H]2CCCN2C(=O)[C@H](C(C)CC)NC(=O)[C@@H]2CSC(=N2)[C@H](CC(C)C)NC1=O (some centres not stated) (cyclo(GS(Allyl(1,1-Me2))[X53][Ile(3ξ)]P)) | > 100

test system: IGROV1 ovarian; experiment: NCI tumour cell line growth inhibition, 48 h

Row | Compound | TGI [µM]
40 | O=C1c2ccccc2C(=O)N1[C@@H](Cc1ccccc1)C(=O)n1cccc1CO | > 100
41 | C1CSC2=C(S1)SC1=C(S2)SC(=C2SC3=C(SC4=C(SCCS4)S3)S2)S1 | > 100
42 | Clc1ccc(Cc2nc3cc(Cl)c(Cl)cc3n2CC2CCCN3CCCCC23)cc1Cl (configuration not stated) | 15.4
43 | C=CC(C)(C)OC[C@@H]1NC(=O)CNC(=O)[C@@H]2CCCN2C(=O)[C@H](C(C)CC)NC(=O)[C@@H]2CSC(=N2)[C@H](CC(C)C)NC1=O (some centres not stated) (cyclo(GS(Allyl(1,1-Me2))[X53][Ile(3ξ)]P)) | > 100

test system: M14 melanoma; experiment: NCI tumour cell line growth inhibition, 48 h

Row | Compound | TGI [µM]
44 | O=C1c2ccccc2C(=O)N1[C@@H](Cc1ccccc1)C(=O)n1cccc1CO | > 100
45 | C1CSC2=C(S1)SC1=C(S2)SC(=C2SC3=C(SC4=C(SCCS4)S3)S2)S1 | > 100
46 | Clc1ccc(Cc2nc3cc(Cl)c(Cl)cc3n2CC2CCCN3CCCCC23)cc1Cl (configuration not stated) | 4.04
47 | C=CC(C)(C)OC[C@@H]1NC(=O)CNC(=O)[C@@H]2CCCN2C(=O)[C@H](C(C)CC)NC(=O)[C@@H]2CSC(=N2)[C@H](CC(C)C)NC1=O (some centres not stated) (cyclo(GS(Allyl(1,1-Me2))[X53][Ile(3ξ)]P)) | > 100

test system: KM12 colon; experiment: NCI tumour cell line growth inhibition, 48 h

Row | Compound | TGI [µM]
48 | O=C1c2ccccc2C(=O)N1[C@@H](Cc1ccccc1)C(=O)n1cccc1CO | > 100
49 | C1CSC2=C(S1)SC1=C(S2)SC(=C2SC3=C(SC4=C(SCCS4)S3)S2)S1 | > 100
50 | Clc1ccc(Cc2nc3cc(Cl)c(Cl)cc3n2CC2CCCN3CCCCC23)cc1Cl (configuration not stated) | 7.51
51 | C=CC(C)(C)OC[C@@H]1NC(=O)CNC(=O)[C@@H]2CCCN2C(=O)[C@H](C(C)CC)NC(=O)[C@@H]2CSC(=N2)[C@H](CC(C)C)NC1=O (some centres not stated) (cyclo(GS(Allyl(1,1-Me2))[X53][Ile(3ξ)]P)) | > 100

test system: NCI-H522 lung; experiment: NCI tumour cell line growth inhibition, 48 h

Row | Compound | TGI [µM]
52 | O=C1c2ccccc2C(=O)N1[C@@H](Cc1ccccc1)C(=O)n1cccc1CO | > 100
53 | C1CSC2=C(S1)SC1=C(S2)SC(=C2SC3=C(SC4=C(SCCS4)S3)S2)S1 | > 100
54 | Clc1ccc(Cc2nc3cc(Cl)c(Cl)cc3n2CC2CCCN3CCCCC23)cc1Cl (configuration not stated) | 3.54
55 | C=CC(C)(C)OC[C@@H]1NC(=O)CNC(=O)[C@@H]2CCCN2C(=O)[C@H](C(C)CC)NC(=O)[C@@H]2CSC(=N2)[C@H](CC(C)C)NC1=O (some centres not stated) (cyclo(GS(Allyl(1,1-Me2))[X53][Ile(3ξ)]P)) | > 100

test system: HT29 colon; experiment: NCI tumour cell line growth inhibition, 48 h

Row | Compound | TGI [µM]
56 | O=C1c2ccccc2C(=O)N1[C@@H](Cc1ccccc1)C(=O)n1cccc1CO | > 100
57 | C1CSC2=C(S1)SC1=C(S2)SC(=C2SC3=C(SC4=C(SCCS4)S3)S2)S1 | > 100
